Structures are written as SMILES.

For one experiment, the target named is T1, IRAK4 enzyme (Homo sapiens, UniProt Q9NWZ3).
T1 construct: purchased Carna Biosciences, Chuo-ku, Kobe, Japan
T1 sequence (Q9NWZ3 1-460): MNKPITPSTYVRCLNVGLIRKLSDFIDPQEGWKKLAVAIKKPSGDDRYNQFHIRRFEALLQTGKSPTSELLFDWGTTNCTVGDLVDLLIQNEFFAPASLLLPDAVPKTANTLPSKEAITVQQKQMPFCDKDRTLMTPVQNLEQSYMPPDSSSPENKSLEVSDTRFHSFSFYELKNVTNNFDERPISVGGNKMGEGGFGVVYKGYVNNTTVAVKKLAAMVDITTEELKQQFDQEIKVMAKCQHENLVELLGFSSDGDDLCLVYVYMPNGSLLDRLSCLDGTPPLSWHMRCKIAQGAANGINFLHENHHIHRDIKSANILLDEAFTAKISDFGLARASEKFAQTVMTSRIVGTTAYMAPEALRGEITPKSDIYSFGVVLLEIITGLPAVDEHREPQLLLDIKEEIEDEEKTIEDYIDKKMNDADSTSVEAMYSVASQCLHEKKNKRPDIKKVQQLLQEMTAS
Put plainly: IRAK4 Biochemical Assay (TR-FRET, STK1 KinEASE). To be noted: 500 μM ATP, Table 2 second part (compounds 33-343), read-out: IC50 IRAK4-HTBS. Here is the method:
IRAK4 enzyme (Carna Biosciences, Chuo-ku, Kobe, Japan) activity was measured by detecting phosphorylated peptide substrate formation using an antibody against the phosphorylated peptide substrate. This is a time-resolved fluorescence resonance energy transfer (TR-FRET) immunoassay, based on the STK1 KinEASE Assay (Cisbio, Bedford, Massachusetts). The assay was designed as a simple two-step, endpoint assay (a 5 μl enzyme reaction followed by 5 μl stop and detect Solution) performed in ProxiPlate-384 Plus plates (Perkin Elmer, Waltham, Massachusetts). […] Compounds diluted in DMSO were spotted into 384 well plates using a Labcyte® Echo 550 Liquid Handling System prior to addition of IRAK4 enzyme and peptide substrate. Reaction solutions were delivered using a Multi-Flo (Bio-Tek Instruments). The enzyme and peptide solution was incubated with compound for 15 minutes at room temp before the reaction was initiated by the addition of ATP. The standard 5 μl reaction mixture contained 500 μM ATP, 2 μM peptide (STK1 Peptide), 0.75 nM of IRAK4 in reaction buffer (50 mM HEPES, pH 7.0, 0.02% NaN3, 0.01% BSA, 0.1 mM Orthovanadate, 5 mM MgCl2, 0.025% NP-40, 1 mM DTT). After 120 min of incubation at room temperature, 5 μl of Stop and Detect Solution (1:100 Cryptate labeled anti-phosphorylated peptide antibody solution and 125 nM Tracer in a 50 mM HEPES pH 7.0 detection buffer containing sufficient EDTA) was added. The plate was then further incubated for 60 minutes at room temperature and read on Envision 2103 Multilabeled reader (PerkinElmer) with excitation/emission/FRET emission at 340 nm/615 nm/665 nm, respectively. Fluorescence intensities at 615 nm and 665 nm emission wavelengths were expressed as a ratio (665 nm/615 nm).

For the next experiment, the system named is TNFα. Description: IRAK4 Monocyte TNFα Cell Based Assay (LPS-stimulated, TR-FRET TNFα detection). More on the design: species or system human. To be noted: Homo sapiens, Monocyte, human monocytes, LPS-stimulated; Table 2 second part (compounds 33-343); read-out: EC50 MONO TNF HTRF. On the procedure: IRAK4 Monocyte TNFα Cell Based Assay Procedure:
The cell suspension was then plated at a density of 5,000 cells/well onto black 384 well Greiner clear bottom plates. Plates were pre-spotted with test compounds and serially diluted in DMSO where 40 nL/well were delivered using the Echo 550 acoustic liquid dispenser (Labcyte®) for a final DMSO concentration of 0.1%. Plated cells were treated with compound for 1 hour at 37° C. Cells were then stimulated with 50 pg/ml of LPS (Sigma) excluding outside columns of plate used for unstimulated cell control wells. Cells were incubated for an additional 4 hours at 37° C. Cells were then spun out of the media and 5 μl of sample were taken and analyzed for total TNFα content using the TR-FRET Human TNFα detection system (CisBio). This system utilizes two labeled antibodies (cryptate and XL665) that bind to two different epitopes of the TNFα molecule and produce FRET signal proportional to the concentration of TNFα in the sample. Detection antibodies are mixed 50:50 and 5 μL were dispensed into each well. Plates were covered with clear seals and incubated at room temp overnight. […] Percent of control was calculated as follows: % Control=100×(RatioSample−Ratio0% Stimulation)/(Ratio100% Stimulation−Ratio0% Stimulation) where unstimulated cells (0% stimulation) were the negative control and stimulated cells (100% stimulation) were used as the positive control.
(In TR-FRET formats the signal depends on donor and acceptor labels being close together.)

What is called IC50 is the concentration that inhibits the measured activity by half. The term EC50 denotes the midpoint of the concentration-response curve. For the compound `CC(C)Nc1cc(-c2ccc3cc(C#N)cnn23)ncc1-c1nnc(C(=O)N[C@H]2C[C@](C)(O)C2)s1` [Example 219, 5-(6-(3-cyanopyrrolo[1,2-b]pyridazin-7-yl)-4-(isopropylamino)pyridin-3-yl)-N-((1r,3r)-3-hydroxy-3-methylcyclobutyl)-1,3,4-thiadiazole-2-carboxamide], the concentration for half-maximal inhibition (IC50) at IRAK4 enzyme worked out at 0.68 nM. Further, the 50% effective concentration (EC50) in the experiment with TNFα was 2070 nM.

As for `CC(C)Nc1cc(-c2ccc3cc(C#N)cnn23)ncc1-c1nnc(N2C[C@H]3CC[C@@H](C2)[C@@H]3Nc2ncccc2F)s1` [Compound 309, 7-(5-(5-((1R,5S,8s)-8-((3-fluoropyridin-2-yl)amino)-3-azabicyclo[3.2.1]octan-3-yl)-1,3,4-thiadiazol-2-yl)-4-(isopropylamino)pyridin-2-yl)pyrrolo[1,2-b]pyridazine-3-carbonitrile], the IC50 at IRAK4 enzyme amounted to 29.4 nM. Further, in the experiment with TNFα, the concentration giving a half-maximal response (EC50) came to 687 nM.

Regarding `N#Cc1cnn2c(-c3cc(NC4COC4)c(-c4nnc([C@H]5CC[C@H](NC(=O)N6CCOCC6)CC5)s4)cn3)ccc2c1` [Example 142, N-((1r,4r)-4-(5-(6-(3-cyanopyrrolo[1,2-b]pyridazin-7-yl)-4-(oxetan-3-ylamino)pyridin-3-yl)-1,3,4-thiadiazol-2-yl)cyclohexyl)morpholine-4-carboxamide], the concentration for half-maximal inhibition (IC50) at IRAK4 enzyme turned out to be 0.38 nM. Further, the EC50 with TNFα came to 9.2 nM.

On to `CC(=O)N[C@@H]1[C@@H]2CC[C@H]1CN(c1nnc(-c3cnc(-c4ccc5cc(C#N)cnn45)cc3NC3COC3)s1)C2` [Example 184, N-((1R,5S,8s)-3-(5-(6-(3-cyanopyrrolo[1,2-b]pyridazin-7-yl)-4-(oxetan-3-ylamino)pyridin-3-yl)-1,3,4-thiadiazol-2-yl)-3-azabicyclo[3.2.1]octan-8-yl)acetamide], for which, on IRAK4 enzyme, the 50% inhibitory concentration (IC50) was determined as 0.54 nM. Moreover, in the experiment with TNFα, the half-maximal effective concentration (EC50) is 2.4 nM.

`CC(=O)N[C@H]1C[C@H](c2nnc(-c3cnc(-c4ccc5cc(C#N)cnn45)cc3NC3CCOCC3)s2)C1` [Example 201, N-((1r,3r)-3-(5-(6-(3-cyanopyrrolo[1,2-b]pyridazin-7-yl)-4-((tetrahydro-2H-pyran-4-yl)amino)pyridin-3-yl)-1,3,4-thiadiazol-2-yl)cyclobutyl)acetamide]: the half-inhibitory concentration (IC50) on IRAK4 enzyme is 1.17 nM. The EC50 with TNFα turned out to be 34.9 nM.

On to `CC(=O)N[C@H]1CC[C@H](c2nnc(-c3cnc(-c4ccc5cc(C#N)cnn45)cc3NC3CCOCC3)s2)CC1` [Compound 255, N-((1r,4r)-4-(5-(6-(3-cyanopyrrolo[1,2-b]pyridazin-7-yl)-4-((tetrahydro-2H-pyran-4-yl)amino)pyridin-3-yl)-1,3,4-thiadiazol-2-yl)cyclohexyl)acetamide], for which the IC50 on IRAK4 enzyme worked out at 0.63 nM. The EC50 in the experiment on TNFα worked out at 5.1 nM.

In the case of `CC(C)Nc1cc(-c2ccc3cc(C#N)cnn23)ncc1-c1nnc(N2C[C@H]3CC[C@@H](C2)[C@@H]3NC(=O)C(C)(C)C(=O)O)s1` [Example 97, 3-(((1R,5S,8s)-3-(5-(6-(3-cyanopyrrolo[1,2-b]pyridazin-7-yl)-4-(isopropylamino)pyridin-3-yl)-1,3,4-thiadiazol-2-yl)-3-azabicyclo[3.2.1]octan-8-yl)amino)-2,2-dimethyl-3-oxopropanoic acid], the IC50 at IRAK4 enzyme was 0.82 nM. Besides, the EC50 in the experiment on TNFα was 21.7 nM.

As to `C[C@H](C#N)Nc1cc(-c2ccc3cc(C#N)cnn23)ncc1-c1nnc(N2C[C@H]3CC[C@@H](C2)[C@@H]3NC(=O)C(C)(C)O)s1` [Example 86, N-((1R,5S,8S)-3-(5-(4-(((R)-1-cyanoethyl)amino)-6-(3-cyanopyrrolo[1,2-b]pyridazin-7-yl)pyridin-3-yl)-1,3,4-thiadiazol-2-yl)-3-azabicyclo[3.2.1]octan-8-yl)-2-hydroxy-2-methylpropanamide], the half-inhibitory concentration (IC50) at IRAK4 enzyme came to 0.65 nM. For the same compound, the EC50 with TNFα came to 0.6 nM.

Turning to `COC(=O)NC[C@H]1C[C@H](Nc2cc(-c3ccc4cc(C#N)cnn34)ncc2-c2nnc([C@H]3CC[C@H](NC(=O)N4CCOCC4)CC3)s2)C1` [Example 143, methyl (((1R,3r)-3-((2-(3-cyanopyrrolo[1,2-b]pyridazin-7-yl)-5-(5-((1r,4R)-4-(morpholine-4-carboxamido)cyclohexyl)-1,3,4-thiadiazol-2-yl)pyridin-4-yl)amino)cyclobutyl)methyl)carbamate], the IC50 at IRAK4 enzyme turned out to be 0.34 nM. In the experiment with TNFα, the half-maximal effective concentration (EC50) was determined as 3.1 nM.

`CC(=O)N[C@]1(C)[C@@H]2CC[C@H]1CN(c1nnc(-c3cnc(-c4ccc5cc(C#N)cnn45)cc3NC(C)C)s1)C2` [Example 155, N-((1R,5S,8s)-3-(5-(6-(3-cyanopyrrolo[1,2-b]pyridazin-7-yl)-4-(isopropylamino)pyridin-3-yl)-1,3,4-thiadiazol-2-yl)-8-methyl-3-azabicyclo[3.2.1]octan-8-yl)acetamide]: on IRAK4 enzyme, the IC50 was determined as 1.52 nM. In addition, the EC50 in the experiment on TNFα worked out at 7.4 nM.

As for `CC(C)Nc1cc(-c2ccc3cc(C#N)cnn23)ncc1-c1nnc(N2C[C@H]3CC[C@@H](C2)[C@@H]3NC(=O)N2CCN(S(C)(=O)=O)CC2)s1` [Example 106, N-((1R,5S,8s)-3-(5-(6-(3-cyanopyrrolo[1,2-b]pyridazin-7-yl)-4-(isopropylamino)pyridin-3-yl)-1,3,4-thiadiazol-2-yl)-3-azabicyclo[3.2.1]octan-8-yl)-4-(methylsulfonyl)piperazine-1-carboxamide], the IC50 at IRAK4 enzyme worked out at 1.09 nM. In addition, in the experiment on TNFα, the EC50 is 2.6 nM.

For `CC(=O)N[C@H]1C[C@H](c2nnc(-c3cnc(-c4ccc5cc(C#N)cnn45)cc3NC3COC3)s2)C1` [Example 202, N-((1r,3r)-3-(5-(6-(3-cyanopyrrolo[1,2-b]pyridazin-7-yl)-4-(oxctan-3-ylamino)pyridin-3-yl)-1,3,4-thiadiazol-2-yl)cyclobutyl)acetamide], the IC50 on IRAK4 enzyme turned out to be 1.23 nM. For the same compound, the EC50 in the experiment with TNFα came to 166 nM.

Take `CC(=O)N[C@]1(C)[C@@H]2CC[C@H]1CN(c1nnc(-c3cnc(-c4ccc5cc(C#N)cnn45)cc3N[C@H](C)C#N)s1)C2` [Example 157, N-((1R,5S,8S)-3-(5-(4-(((R)-1-cyanoethyl)amino)-6-(3-cyanopyrrolo[1,2-b]pyridazin-7-yl)pyridin-3-yl)-1,3,4-thiadiazol-2-yl)-8-methyl-3-azabicyclo[3.2.1]octan-8-yl)acetamide]: at IRAK4 enzyme, the IC50 amounted to 1.03 nM. Further, in the experiment on TNFα, the EC50 was 1.8 nM.

For the compound `COC(=O)NC[C@H]1C[C@H](Nc2cc(-c3ccc4cc(C#N)cnn34)ncc2-c2nnc(N3C[C@H]4CC[C@@H](C3)[C@@H]4NC(C)=O)s2)C1` [Example 52, methyl (((1R,3r)-3-((5-(5-((1R,5S,8S)-8-acetamido-3-azabicyclo[3.2.1]octan-3-yl)-1,3,4-thiadiazol-2-yl)-2-(3-cyanopyrrolo[1,2-b]pyridazin-7-yl)pyridin-4-yl)amino)cyclobutyl)methyl)carbamate], the IC50 on IRAK4 enzyme was 0.82 nM. Moreover, the EC50 in the experiment on TNFα was found to be 4.1 nM.

With `CC(C)Nc1cc(-c2ccc3cc(C#N)cnn23)ncc1-c1nnc([C@H]2CC[C@H](NC(=O)N3CCOCC3)CC2)s1` [Example 139, N-((1r,4r)-4-(5-(6-(3-cyanopyrrolo[1,2-b]pyridazin-7-yl)-4-(isopropylamino)pyridin-3-yl)-1,3,4-thiadiazol-2-yl)cyclohexyl)morpholine-4-carboxamide], the IC50 on IRAK4 enzyme turned out to be 0.65 nM. In addition, the EC50 in the experiment on TNFα came to 5.9 nM.
